Publication PMC3718762, “Differential Disruption of EWS-FLI1 Binding by DNA-Binding Agents” (PLoS ONE, 2013)
Starred links: 1 amine or outer side, 2 acyl side, 3 side chain; linkers in the order of their positions; H or OH if unused. Positions of bridges follow the written chain, without caps; N, C: chain ends. Non-standard residues stand in square brackets, D forms with d. Residues, ends and D or L forms follow the SMILES beside them. Chains are numbered I, II in the order given. Actinocin(9to1) = Cc1c2oc3c(C)ccc(C(=O)[*:1])c3nc-2c(C(=O)[*:2])c(N)c1=O; NMeV = CN[C@H](C(=O)O)C(C)C; Sar = CNCC(=O)O

Experiments:
Format in all cases: cell-based
[1] = target: T1, EWS-FLI1 binding to the NR0B1 promoter (Homo sapiens, UniProt Q01543+Q01844); experiment: ChIP-qPCR, EWS-FLI1 binding to NR0B1 promoter in A673 cells; details: 5 nM, 4 hrs, anti-FLI1 ChIP, DMSO 31-fold, p = 0.0018
T1 construct: EWS (EWSR1, Q01844) N-terminal portion, fusion partner; endogenous in cells; host or cells: A673 Ewing sarcoma cells
T1 sequence (Q01844+Q01543 with tags, fused parts or gaps): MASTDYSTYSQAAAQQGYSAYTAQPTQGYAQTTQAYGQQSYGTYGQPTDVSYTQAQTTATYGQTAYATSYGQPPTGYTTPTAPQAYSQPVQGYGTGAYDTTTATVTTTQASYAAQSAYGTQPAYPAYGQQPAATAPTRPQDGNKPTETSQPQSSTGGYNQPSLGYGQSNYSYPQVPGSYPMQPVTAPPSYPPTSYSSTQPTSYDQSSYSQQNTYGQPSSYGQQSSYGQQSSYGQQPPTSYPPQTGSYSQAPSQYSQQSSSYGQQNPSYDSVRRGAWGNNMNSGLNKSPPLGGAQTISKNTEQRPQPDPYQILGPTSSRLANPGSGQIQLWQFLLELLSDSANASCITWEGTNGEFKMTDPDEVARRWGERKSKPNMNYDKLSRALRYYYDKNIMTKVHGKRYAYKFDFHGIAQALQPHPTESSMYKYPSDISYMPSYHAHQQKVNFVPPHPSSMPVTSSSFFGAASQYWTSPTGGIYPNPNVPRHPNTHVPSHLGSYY
Method: (§1) ChIP-qPCR was performed as previously described. Briefly, cells were treated with compounds for 4 hrs, then crosslinked, lysed, and chromatin fragmented. After ChIP, quantitative PCR was used to quantify NR0B1, p53, and RPS26 loci, and fold enrichment was determined by the formula: Fold enrichment = 2χ(Input Ct-ChIP Ct)/2χ(Input Ct-IgG Ct).
(§2) We used chromatin immunoprecipitation coupled with quantitative PCR (ChIP-qPCR) to assess effects of actinomycin D on EWS-FLI1 binding to chromatin in cells. A673 cells were treated with either actinomycin D at 5 nM, or vehicle. After crosslinking, chromatin was sheared and EWS-FLI1-DNA complexes were immunoprecipitated using an anti-FLI1 antibody. We used primers flanking the EWS-FLI1-binding site in the promoter of the NR0B1 gene to quantify binding of EWS-FLI1. We used RPS26 and TP53 as control loci since neither are bound by EWS-FLI [15] and we have shown that RPS26 and TP53 transcript levels were unaffected by actinomycin D treatment (Figure 2F). Without actinomycin D treatment, binding of EWS-FLI1 to the NR0B1 promoter was enriched 31-fold by comparison to IgG controls (Figure 4A, DMSO). Treatment of cells with actinomycin D reduced binding of EWS-FLI1 to the NR0B1 promoter to 4-fold (p = 0.0018; Figure 4A).

RPS26 and TP53 loci = experiment: ChIP-qPCR, control loci in A673 cells; details: 5 nM, 4 hrs, anti-FLI1 ChIP
Method: as §1, §2

[2] = test system: RPS26 and TP53 transcripts; experiment: Quantitative RT-PCR of control transcripts in A673 cells; details: actinomycin D treatment (Figure 2F)
Method: (§3) Duplicate wells of A673 cells were treated overnight with different concentration of actinomycin D. RNA was extracted with absolutely mRNA purification kit from Stratagene. 0.5 µg total RNA was mixed with 1 µl iScript Reverse Transcriptase, 10 µl of 2× RT-PCR reaction mix for probes from Bio-Rad, 1 µl of NR0B1, RPS26 and TP53 probes from Life Technologies and H2O up to 20 µl total volume. RT-PCR was performed in an iCycler iQ with 50°C for 10 minutes for one cycle; 95°C, 15 seconds, 60°C 40 seconds for 40 cycles. Each RNA sample was technically duplicated, and relative abundance was calculated by the delta Ct method.

NR0B1 mRNA = experiment: Quantitative RT-PCR of endogenous NR0B1 mRNA in A673 cells
Method: as §3

SMILES: Cc1c2oc3c(C)ccc(C(=O)N[C@@H]4C(=O)N[C@H](C(C)C)C(=O)N5CCC[C@H]5C(=O)N(C)CC(=O)N(C)[C@@H](C(C)C)C(=O)O[C@@H]4C)c3nc-2c(C(=O)N[C@@H]2C(=O)N[C@H](C(C)C)C(=O)N3CCC[C@H]3C(=O)N(C)CC(=O)N(C)[C@@H](C(C)C)C(=O)O[C@@H]2C)c(N)c1=O [Actinomycin D] (I: T[dV]P[Sar][NMeV] / II: T[dV]P[Sar][NMeV]; ester I:1-I:C, II:1-II:C; linker I:N-II:N via Actinocin(9to1))
- Binding of EWS-FLI1 to the NR0B1 promoter, fold enrichment over IgG control [1]: 4 fold
- Effect on RPS26 or TP53 loci in ChIP (RPS26 and TP53 loci): did not affect
- RPS26 and TP53 transcript levels [2]: unaffected
- Expression of NR0B1 and control transcripts (NR0B1 mRNA; A673 cells, overnight, 50 nM): similarly attenuated
- Expression of endogenous NR0B1 mRNA (NR0B1 mRNA; A673 cells, overnight, 5 -10 nM, versus control transcripts p53 and RPS26): preferentially attenuated
- Window between preferential effect on EWS-FLI1 and global inhibition of transcription (NR0B1 mRNA; in cells): < 10 fold
